In the test the target is MNK2a (Homo sapiens (Human), UniProt Q9HBH9). The test can be described thus: MNK2a in vitro kinase assay (Assay 2), ADP-Glo. The test is classed as biochemical. The conditions noted are these: read-out: MNK2 IC50. The procedure: B. MNK2a In vitro Kinase Assay (Assay 2)
ASSAY SETUP: The inhibition of kinase activity of MNK2a was assessed using pre-activated GST-MNK2a. The white, 384-well OptiPlate F plates were purchased from PerkinElmer. The ADP-Glo Kinase Assay (including ultra pure ATP) was purchased from Promega (V9103). Activated MNK2a was obtained as described in WO2011/104340. […] ID No. 5 of WO 2011/104340 by the C-terminal —CONH2 group, was purchased from Thermo Fisher Scientific. All other materials were of highest grade commercially available. Compounds are tested in either serial dilutions or single dose concentrations. The compound stock solutions are 10 mM in 100% DMSO The serial compound dilutions are prepared in 100% DMSO followed by 1:27.3 intermediate dilution in assay buffer. The final DMSO concentration in assay will be <3%. In the 384-well plates 3 μl of test compound from the intermediate dilution is mixed with 4 μl of the activated MNK2 enzyme (final concentration of 10 nM) and 4 μl of the peptide (final concentration of 25 μM)/ultra pure ATP (final concentration of 20 μM), all dissolved in assay buffer. This step is followed by an incubation time of 90 min, then 10 μl of ADP Glo reagent are added, followed by 40 min of incubation. Then 20 μl of kinase detection reagent are admixed. The plates are sealed and after an incubation period of 30 min, the luminescence signal is measured in an Envision reader to determine the amount of produced ADP. All incubation steps are performed at room temperature. The assay buffer consists of 20 mM HEPES, 2 mM DTT, 0.01% BSA, 20 mM MgCl2 and 0.1% Pluronic F-127.
The luminescent signal generated is proportional to the ADP concentration produced and is correlated with activated MNK2 activity. The analysis of the data is performed by the calculation of the percentage of ATP consumption of activated MNK2 in the presence of the test compound compared to the consumption of ATP in the presence of activated MNK2 without compound. (RLU(sample)−RLU(low control))*100/(RLU(high value)−RLU(low control)) [RLU=relative luminescence units]
[…] values based on dose response curves are calculated with the AssayExplorer software.

Sequence of MNK2a (Q9HBH9 whole entry): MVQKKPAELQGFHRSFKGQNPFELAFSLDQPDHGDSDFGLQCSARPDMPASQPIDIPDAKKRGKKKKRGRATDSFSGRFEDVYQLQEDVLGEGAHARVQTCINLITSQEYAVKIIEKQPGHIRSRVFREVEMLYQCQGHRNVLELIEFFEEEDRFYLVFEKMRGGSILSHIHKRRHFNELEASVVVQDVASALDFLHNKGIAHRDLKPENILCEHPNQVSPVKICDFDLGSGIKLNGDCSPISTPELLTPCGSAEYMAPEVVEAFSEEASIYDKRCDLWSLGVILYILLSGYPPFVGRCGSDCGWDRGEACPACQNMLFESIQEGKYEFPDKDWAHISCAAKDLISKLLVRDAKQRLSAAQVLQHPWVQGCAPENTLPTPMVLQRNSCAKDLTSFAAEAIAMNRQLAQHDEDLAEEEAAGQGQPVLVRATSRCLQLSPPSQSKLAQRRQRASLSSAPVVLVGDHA

`Cc1cc(N=S(C)(C)=O)cc2ncnc(Nc3ccc(F)cc3OCC3CNC(=O)C3)c12` (centres unmarked) [Example 3.037]: the IC50 came to 3 nM.
With `COc1cc(N=S(C)(C)=O)cc2ncnc(Nc3ccc(F)cc3O[C@H](C)C(=O)NCC(F)(F)F)c12` [Example 3.040], the IC50 turned out to be 6 nM.
For `Cc1nnc(C(C)Oc2cc(F)ccc2Nc2ncnc3cc(N=S(C)(C)=O)cc(C)c23)o1` (centres unmarked) [Example 3.041] the value was 33 nM.
For `Cc1cc(N=S(C)(C)=O)cc2ncnc(Nc3ccc(F)cc3O[C@H](C)C(=O)N[C@H](C)C(F)(F)F)c12` [Example 3.051] the value was 3 nM; for `Cc1cc(N=S2(=O)CCC2)cc2ncnc(Nc3ccc(F)cc3O[C@H](C)C(=O)N(CC(F)(F)F)CC(F)(F)F)c12` [Example 3.052], 3 nM.
As for `Cc1cc(N=S(C)(C)=O)cc2ncnc(Nc3ccc(F)cc3O[C@H](C)C(=O)N(CC(F)F)CC(F)F)c12` [Example 3.053], the half-maximal inhibitory concentration (IC50) stood at 2 nM.
With `Cc1cc(N=S(C)(C)=O)cc2ncnc(Nc3ccc(F)cc3O[C@H](C)C(=O)N(CC(F)(F)F)CC(F)(F)F)c12` [Example 3.055], the IC50 is 3 nM.
With `Cc1cc(N=S2(=O)CCCC2)cc2ncnc(Nc3ccc(F)cc3O[C@H](C)C(=O)N3CC[S+]([O-])CC3)c12` [Example 4.004], the IC50 came to 6 nM.
Regarding `Cc1cc(N=S2(=O)CCCC2)cc2ncnc(Nc3ccc(F)cc3O[C@H](C)C(=O)N3CCCC3)c12` [Example 4.006], the concentration for half-maximal inhibition (IC50) is 5 nM.
The value for `Cc1cc(N=S2(=O)CCCC2)cc2ncnc(Nc3ccc(F)cc3O[C@H](C)C(=O)NCC#N)c12` [Example 4.007] was 2 nM; that for `Cc1cc(N=S(C)(C)=O)cc2ncnc(Nc3ccc(F)cc3O[C@H](C)C(=O)N3CCCC3)c12` [Example 4.016] was 20 nM.
Consider `CCN(CC)C(=O)[C@@H](C)Oc1cc(F)ccc1Nc1ncnc2cc(N=S3(=O)CCCC3)cc(C)c12` [Example 4.025], for which the IC50 was 3 nM.
As to `Cc1cc(N=S2(=O)CCCC2)cc2ncnc(Nc3ccc(F)cc3O[C@H](C)C(=O)N(C)C3CCCC3)c12` [Example 4.026], the IC50 stood at 3 nM.
For `Cc1cc(N=S(C)(C)=O)cc2ncnc(Nc3ccc(F)cc3O[C@H](C)C(=O)N3CC[S+]([O-])CC3)c12` [Example 4.030], the IC50 stood at 11 nM.
With `CCCNC(=O)[C@@H](C)Oc1cc(F)ccc1Nc1ncnc2cc(N=S3(=O)CCCC3)cc(C)c12` [Example 4.033], the IC50 stood at 2 nM.
Regarding `Cc1cc(N=S(C)(C)=O)cc2ncnc(Nc3ccc(F)cc3O[C@H](C)C(=O)NCC(F)F)c12` [Example 4.036], the IC50 was 1 nM.
Take `Cc1cc(N=S(C)(C)=O)cc2ncnc(Nc3ccc(F)cc3O[C@H](C)C(=O)NCC#N)c12` [Example 4.039]: the concentration for half-maximal inhibition (IC50) was 1 nM.
In the case of `Cc1cc(N=S2(=O)CCCC2)cc2ncnc(Nc3ccc(F)cc3O[C@H](C)C(=O)NCC(F)F)c12` [Example 4.043], the IC50 is 2 nM.
In the case of `Cc1cc(N=S(C)(C)=O)cc2ncnc(Nc3ccc(F)cc3O[C@H](C)C(=O)N3CCC(=O)CC3)c12` [Example 4.046], the IC50 amounted to 15 nM.
With `Cc1cc(N=S(C)(C)=O)cc2ncnc(Nc3ccc(F)cc3O[C@H](C)C(=O)N3CCC3)c12` [Example 4.049], the 50% inhibitory concentration (IC50) stood at 19 nM.
The value for `CC#CCNC(=O)[C@@H](C)Oc1cc(F)ccc1Nc1ncnc2cc(N=S(C)(C)=O)cc(C)c12` [Example 4.066] was 9 nM; that for `Cc1cc(N=S2(=O)CCCC2)cc2ncnc(Nc3ccc(F)cc3O[C@H](C)C(=O)N3CCC3)c12` [Example 4.070] was 7 nM; that for `CC(C)NC(=O)[C@@H](C)Oc1cc(F)ccc1Nc1ncnc2cc(N=S(C)(C)=O)cc(Cl)c12` [Example 4.076] was 4 nM.
In the case of `C[C@@H](C#N)NC(=O)[C@@H](C)Oc1cc(Cl)ccc1Nc1ncnc2cc(N=S3(=O)CCC3)cc(F)c12` [Example 4.077], the IC50 came to 2 nM.
Consider `C[C@@H](Oc1cc(F)ccc1Nc1ncnc2cc(N=S(C)(C)=O)cc(Cl)c12)C(=O)NCCF` [Example 4.078], for which the IC50 was 2 nM.
`Cc1cc(N=S2(=O)CCC2)cc2ncnc(Nc3ccc(Cl)cc3O[C@H](C)C(=O)N[C@@H](C)C(F)(F)F)c12` [Example 4.079]: the IC50 was determined as 1 nM.
In the case of `C[C@@H](Oc1cc(F)ccc1Nc1ncnc2cc(N=S(C)(C)=O)cc(Cl)c12)C(=O)NCC(F)F` [Example 4.080], the IC50 was determined as 2 nM.
With `Cc1cc(N=S2(=O)CCC2)cc2ncnc(Nc3ccc(F)cc3O[C@H](C)C(=O)NC(C)C)c12` [Example 4.081], the IC50 was 2 nM.
On to `Cc1cc(N=S2(=O)CCC2)cc2ncnc(Nc3ccc(F)cc3O[C@H](C)C(=O)NC34CC(C3)C4)c12` [Example 4.082], for which the IC50 came out at 2 nM.
With `CC(NC(=O)[C@@H](C)Oc1cc(F)ccc1Nc1ncnc2cc(N=S(C)(C)=O)cc(F)c12)C(F)F` (some centres unmarked) [Example 4.083], the IC50 is 8 nM.
For `C[C@@H](Oc1cc(F)ccc1Nc1ncnc2cc(N=S(C)(C)=O)cc(Cl)c12)C(=O)NCC#N` [Example 4.085] the value was 2 nM; for `C[C@@H](Oc1cc(F)ccc1Nc1ncnc2cc(N=S(C)(C)=O)cc(C(F)(F)F)c12)C(=O)NCC(F)(F)F` [Example 4.086], 2 nM; for `COc1cc(N=S2(=O)CCC2)cc2ncnc(Nc3ccc(Cl)cc3O[C@H](C)C(=O)NCC(F)(F)F)c12` [Example 4.087], 2 nM.
Regarding `Cc1cc(N=S2(=O)CCC2)cc2ncnc(Nc3ccc(F)cc3O[C@H](C)C(=O)NCCC(F)(F)F)c12` [Example 4.089], the IC50 came to 1 nM.
Take `C[C@@H](Oc1cc(F)ccc1Nc1ncnc2cc(N=S3(=O)CCC3)cc(Cl)c12)C(=O)N[C@H](C)C(F)(F)F` [Example 4.090]: the IC50 turned out to be 1 nM.
In the case of `C[C@@H](Oc1cc(F)ccc1Nc1ncnc2cc(N=S(C)(C)=O)cc(Cl)c12)C(=O)NCC(F)(F)F` [Example 4.091], the concentration for half-maximal inhibition (IC50) is 1 nM.
Consider `Cc1cc(N=S(C)(C)=O)cc2ncnc(Nc3ccc(Cl)cc3O[C@H](C)C(=O)NCC(F)(F)F)c12` [Example 4.092], for which the half-maximal inhibitory concentration (IC50) was found to be 2 nM.
Regarding `C[C@@H](C#N)NC(=O)[C@@H](C)Oc1cc(Cl)ccc1Nc1ncnc2cc(N=S3(=O)CCCC3)cc(F)c12` [Example 4.093], the IC50 stood at 1 nM.
For `Cc1cc(N=S2(=O)CCC2)cc2ncnc(Nc3ccc(Cl)nc3O[C@H](C)C(=O)N[C@@H](C)C(F)(F)F)c12` [Example 4.094] the value was 1 nM; for `CCOc1cc(N=S2(=O)CCC2)cc2ncnc(Nc3ccc(Cl)cc3O[C@H](C)C(=O)N[C@@H](C)C#N)c12` [Example 4.095], 2 nM; for `C[C@H](NC(=O)[C@@H](C)Oc1cc(F)ccc1Nc1ncnc2cc(N=S3(=O)CCC3)cc(Cl)c12)C(F)(F)F` [Example 4.096], 1 nM.
Regarding `C[C@@H](Oc1cc(F)ccc1Nc1ncnc2cc(N=S3(=O)CCC3)cc(F)c12)C(=O)NCC#N` [Example 4.097], the IC50 was determined as 1 nM.
On to `COc1cc(N=S2(=O)CCC2)cc2ncnc(Nc3ccc(F)cc3O[C@H](C)C(=O)N[C@@H](C)C(F)(F)F)c12` [Example 4.098], for which the IC50 worked out at 4 nM.
The value for `CC(C#N)NC(=O)[C@@H](C)Oc1cc(F)ccc1Nc1ncnc2cc(N=S3(=O)CCC3)cc(F)c12` (some centres unmarked) [Example 4.099] was 2 nM; that for `Cc1cc(N=S(C)(C)=O)cc2ncnc(Nc3ccc(F)cc3O[C@H](C)C(=O)NC(CF)CF)c12` [Example 4.101] was 3 nM.
Regarding `C[C@@H](C#N)NC(=O)[C@@H](C)Oc1cc(F)ccc1Nc1ncnc2cc(N=S3(=O)CCC3)cc(C(F)F)c12` [Example 4.102], the IC50 was determined as 2 nM.
As for `Cc1cc(N=S2(=O)CCC2)cc2ncnc(Nc3ccc(F)cc3O[C@H](C)C(=O)NCC#N)c12` [Example 4.103], the IC50 amounted to 1 nM.
As for `Cc1cc(N=S2(=O)CCCC2)cc2ncnc(Nc3ccc(F)cc3O[C@H](C)C(=O)NCCF)c12` [Example 4.105], the IC50 came to 2 nM.
In the case of `C[C@@H](C#N)NC(=O)[C@@H](C)Oc1cc(F)ccc1Nc1ncnc2cc(N=S3(=O)CCC3)cc(F)c12` [Example 4.106], the IC50 worked out at 2 nM.
Regarding `Cc1cc(N=S2(=O)CCC2)cc2ncnc(Nc3ccc(F)cc3O[C@H](C)C(=O)NCCF)c12` [Example 4.107], the IC50 was found to be 2 nM.
Regarding `Cc1cc(N=S2(=O)CCC2)cc2ncnc(Nc3ccc(F)cc3O[C@H](C)C(=O)NC(C)C(F)F)c12` (some centres unmarked) [Example 4.109], the IC50 was 2 nM.
Turning to `C[C@@H](Oc1cc(F)ccc1Nc1ncnc2cc(N=S3(=O)CCC3)cc(C(F)F)c12)C(=O)NCC(F)(F)F` [Example 4.110], the half-inhibitory concentration (IC50) is 2 nM.
For the compound `Cc1cc(N=S2(=O)CCC2)cc2ncnc(Nc3ccc(Cl)cc3O[C@H](C)C(=O)NCC(F)F)c12` [Example 4.111], the IC50 was found to be 1 nM.

Values taken from US9139577B2, “Sulfoximine substituted quinazolines for pharmaceutical compositions” (Boehringer Ingelheim International GmbH, priority 2013, dated 2015).
